Source: US20080176826A1, “Pyridine Compounds For Combating Arthropod Pests and Nematodes” (priority 2005, published 2008)

Experiments:
[1] = test system: Green peach aphid (Myzus persicae), mixed life stages; assay: Green peach aphid foliar dip test, mortality; type: in vivo; settings: 120 h, infested bell pepper leaves dipped 3 seconds, determined after 5 days, read-out: mortality of green peach aphid in comparison with untreated controls
Method: (§1) The active compounds were formulated in a mixture of 50 vol.-% acetone: 50 vol.-% water. A nonionic surfactant (Kinetic®) was included in the solution at a volume of 0.01% v/v.
(§2) In the following tests, the formulated solutions of the active compounds were diluted to an active ingredient concentration of 300 ppm and the diluted solutions were applied in the below mentioned tests.
Bell pepper plants at the first true-leaf stage were infested prior to treatment by placing heavily infested leaves from the main aphid colony on top of the treatment plants. The aphids were allowed to transfer overnight to accomplish an infestation of 30-40 aphids per plant and the host leaves were removed. The infested leaves of the test plants were then dipped and agitated in the test solution for 3 seconds and allowed to dry in a fume hood. Test plants were maintained under fluorescent lighting in a 24-hr photoperiod at 25° C. and 20-40% relative humidity. Aphid mortality on the treated plants, relative to mortality on untreated check plants, was determined after 5 days. Test compound A provided 85% mortality while test compounds B and C each provided 100% mortality of green peach aphid (Myzus persicae, mixed life stages) in comparison with untreated controls, when applied at 300 ppm. Test Compounds D, E, F, G and H each provided >85% mortality of green peach aphid (Myzus persicae, mixed life stages) in comparison with untreated controls, when applied at 300 ppm.

[2] = test system: Cotton aphid (Aphis gossypii), mixed life stages; assay: Cotton aphid foliar dip test, mortality; type: in vivo; settings: 120 h, infested cotton cotyledons dipped 3 seconds, determined after 5 days, read-out: mortality of cotton aphid in comparison with untreated controls
Method: as §1, §2
Cotton plants at the cotyledon stage were infested prior to treatment by placing a heavily infested leaf from the main aphid colony on top of each cotyledon. The aphids were allowed to transfer overnight and the host leaf was removed. The infested cotyledons were then dipped and agitated in the test solution for 3 seconds and allowed to dry in a fume hood. Test plants were maintained under fluorescent lighting in a 24-hr photoperiod at 25° C. and 20-40% relative humidity. Aphid mortality on the treated plants, relative to mortality on untreated check plants, was determined after 5 days. In this test, test compounds B, C and F at 300 ppm provided 100%, and 86-99% mortality, respectively, of cotton aphid (Aphis gossypii, mixed life stages) in comparison with untreated controls. Test compound A at 300 ppm provided 75-85% mortality, respectively, of cotton aphid (Aphis gossypii, mixed life stages) in comparison with untreated controls.

| SMILES | mortality at 300 ppm [1] [%] | mortality at 300 ppm [2] [%] |
| --- | --- | --- |
| CC(Oc1ccc(Cl)nc1)C1CCCN1OC(=O)c1ccccc1 (racemic) [Compound E, Benzoic acid 2-[1-(6-chloropyridin-3-yloxy)-ethyl]-pyrrolidin-1-yl ester] | > 85 | – |
| Clc1cncc(OC[C@H]2CCCN2)c1 [Compound A, R-3-Chloro-5-(pyrrolidin-2-ylmethyloxy)-pyridine] | 85 | 75 to 85 |
| CC(C)(C)C(=O)ON1CCCC1COc1cncc(Cl)c1 (stereo not drawn) [Compound B, 2,2-Dimethyl-propionic acid 2-(5-chloropyridin-3-yloxymethyl)pyrrolidin-1-yl ester] | 100 | 100 |
| CC(Oc1ccc(Cl)nc1)C1CCCN1 (stereo not drawn) [Compound F, 2-Chloro-5-(1-pyrrolidin-2-ylethoxy)-pyridine] | > 85 | 86 to 99 |
| CC(Oc1cncc(Cl)c1)C1CCCN1 (stereo not drawn) [Compound G, 3-Chloro-5-(1-pyrrolidin-2-ylethoxy)-pyridine] | > 85 | – |
| C[C@@H](Oc1cncc(Cl)c1)C1CCN1 (stereo partly drawn) [Compound H, 2S-3-(1-Azetidin-2-yl-ethoxy)-5-chloro-pyridine] | > 85 | – |
